Measurements published in patent US9586951B2 (FUJIFILM Corporation, priority 2013, dated 2017).

target: T1, ATM (Homo sapiens, UniProt Q13315); assay: ATM inhibition test (phosphorylation of Chk2 generated by ionizing radiation, AlphaScreen SureFire); assay type: cell-based; conditions: phosphorylated Chk2 in NCI-H460 cells, ionizing radiation 8Gy, 1 hour after test compound treatment; read-out: ATM inhibitory activity
T1 construct: detecting phosphorylation of Chk2 in a human non-small cell lung cancer cell line NCI-H460 (ATCC company); host or cells: NCI-H460 human non-small cell lung cancer cells
T1 sequence (Q13315 whole entry): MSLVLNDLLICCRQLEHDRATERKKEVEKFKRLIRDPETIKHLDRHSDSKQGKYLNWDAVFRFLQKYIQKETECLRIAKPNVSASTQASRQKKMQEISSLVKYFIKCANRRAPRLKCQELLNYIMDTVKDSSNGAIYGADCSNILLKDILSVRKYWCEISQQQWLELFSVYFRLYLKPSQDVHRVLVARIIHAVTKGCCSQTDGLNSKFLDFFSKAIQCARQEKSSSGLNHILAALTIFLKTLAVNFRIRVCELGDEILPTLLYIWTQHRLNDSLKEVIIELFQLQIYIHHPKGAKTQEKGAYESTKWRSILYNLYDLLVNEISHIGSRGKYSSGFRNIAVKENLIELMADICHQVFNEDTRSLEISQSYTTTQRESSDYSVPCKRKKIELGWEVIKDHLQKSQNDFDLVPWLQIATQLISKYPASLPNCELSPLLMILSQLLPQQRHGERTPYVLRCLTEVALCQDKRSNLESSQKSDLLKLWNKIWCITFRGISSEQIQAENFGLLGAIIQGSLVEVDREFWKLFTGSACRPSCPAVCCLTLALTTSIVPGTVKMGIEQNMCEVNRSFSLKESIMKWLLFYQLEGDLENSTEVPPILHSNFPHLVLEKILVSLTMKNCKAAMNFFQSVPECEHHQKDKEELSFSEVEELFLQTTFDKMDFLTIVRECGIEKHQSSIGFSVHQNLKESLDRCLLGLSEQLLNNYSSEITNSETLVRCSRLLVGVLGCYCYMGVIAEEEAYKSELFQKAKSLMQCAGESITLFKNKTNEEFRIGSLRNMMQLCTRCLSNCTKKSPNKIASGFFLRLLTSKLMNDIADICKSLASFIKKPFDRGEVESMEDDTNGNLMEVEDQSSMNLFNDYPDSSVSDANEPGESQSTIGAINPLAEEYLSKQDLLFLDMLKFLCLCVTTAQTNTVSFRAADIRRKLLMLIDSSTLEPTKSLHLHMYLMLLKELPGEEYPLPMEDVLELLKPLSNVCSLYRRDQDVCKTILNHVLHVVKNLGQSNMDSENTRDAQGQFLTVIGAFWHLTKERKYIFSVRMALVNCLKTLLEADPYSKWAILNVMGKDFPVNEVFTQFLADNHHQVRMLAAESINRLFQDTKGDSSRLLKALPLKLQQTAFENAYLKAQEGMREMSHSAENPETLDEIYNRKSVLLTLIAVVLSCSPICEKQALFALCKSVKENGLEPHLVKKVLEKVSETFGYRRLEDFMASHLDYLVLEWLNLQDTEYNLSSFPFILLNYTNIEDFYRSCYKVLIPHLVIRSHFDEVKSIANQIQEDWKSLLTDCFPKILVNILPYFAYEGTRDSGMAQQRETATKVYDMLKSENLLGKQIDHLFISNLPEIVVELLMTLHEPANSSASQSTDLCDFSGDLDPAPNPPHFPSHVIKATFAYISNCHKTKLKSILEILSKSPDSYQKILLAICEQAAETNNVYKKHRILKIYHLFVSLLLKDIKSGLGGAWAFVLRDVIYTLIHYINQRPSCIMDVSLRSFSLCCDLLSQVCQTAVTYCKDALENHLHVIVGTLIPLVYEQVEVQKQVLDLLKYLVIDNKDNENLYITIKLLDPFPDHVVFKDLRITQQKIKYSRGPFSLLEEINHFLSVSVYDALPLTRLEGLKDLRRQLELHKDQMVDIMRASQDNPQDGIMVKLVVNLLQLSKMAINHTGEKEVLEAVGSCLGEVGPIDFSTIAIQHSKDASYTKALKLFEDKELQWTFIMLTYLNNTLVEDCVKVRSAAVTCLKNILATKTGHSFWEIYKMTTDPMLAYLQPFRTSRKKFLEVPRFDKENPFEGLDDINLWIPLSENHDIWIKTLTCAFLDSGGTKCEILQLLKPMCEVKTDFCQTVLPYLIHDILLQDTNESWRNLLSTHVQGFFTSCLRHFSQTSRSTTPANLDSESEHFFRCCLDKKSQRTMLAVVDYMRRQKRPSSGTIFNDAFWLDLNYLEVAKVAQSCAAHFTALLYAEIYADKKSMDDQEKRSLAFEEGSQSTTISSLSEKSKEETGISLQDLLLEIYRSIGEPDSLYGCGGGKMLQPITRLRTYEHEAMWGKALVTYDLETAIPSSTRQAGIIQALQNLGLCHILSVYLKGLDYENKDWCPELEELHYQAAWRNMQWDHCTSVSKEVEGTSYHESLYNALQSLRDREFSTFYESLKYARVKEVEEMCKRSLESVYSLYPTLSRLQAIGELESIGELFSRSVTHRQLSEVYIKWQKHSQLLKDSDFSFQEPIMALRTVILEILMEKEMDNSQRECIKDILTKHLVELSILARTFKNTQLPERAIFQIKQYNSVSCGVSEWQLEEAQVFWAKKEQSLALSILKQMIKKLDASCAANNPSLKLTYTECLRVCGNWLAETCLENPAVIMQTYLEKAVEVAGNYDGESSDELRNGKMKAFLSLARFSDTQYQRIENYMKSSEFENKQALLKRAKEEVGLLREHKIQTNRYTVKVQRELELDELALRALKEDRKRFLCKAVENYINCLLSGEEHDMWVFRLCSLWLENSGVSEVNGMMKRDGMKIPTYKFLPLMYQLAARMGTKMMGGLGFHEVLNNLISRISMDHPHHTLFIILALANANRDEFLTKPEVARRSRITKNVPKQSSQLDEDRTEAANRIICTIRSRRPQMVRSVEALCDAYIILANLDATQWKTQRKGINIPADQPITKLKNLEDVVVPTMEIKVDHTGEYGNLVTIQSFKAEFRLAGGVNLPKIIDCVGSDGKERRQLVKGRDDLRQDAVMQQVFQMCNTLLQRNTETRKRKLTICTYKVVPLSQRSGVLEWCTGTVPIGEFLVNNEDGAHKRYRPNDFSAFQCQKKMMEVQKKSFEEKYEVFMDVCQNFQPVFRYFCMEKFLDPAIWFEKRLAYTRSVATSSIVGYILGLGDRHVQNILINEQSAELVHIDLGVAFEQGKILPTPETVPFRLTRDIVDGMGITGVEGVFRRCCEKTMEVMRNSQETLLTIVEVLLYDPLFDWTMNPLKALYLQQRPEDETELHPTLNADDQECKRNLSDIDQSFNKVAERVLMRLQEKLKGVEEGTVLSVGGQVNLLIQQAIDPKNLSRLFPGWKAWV
Outline: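 NCI-H460 cells treated with compound for 1 hour, then irradiated with 8Gy and incubated 1 hour at 37° C. Phospho-Chk2 measured by AlphaScreen SureFire. Inhibition ratio calculated relative to untreated irradiated and non-irradiated wells.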

SMILES | IC50 [nM]
O=c1cc(N2CCOCC2)cc(-c2cccc3c2Oc2ccc(NC4CCN(Cc5ccc(C(F)(F)F)nc5)CC4)cc2C3)[nH]1 [Example 2-28-15, 4-Morpholino-6-(7-((1-((6-(trifluoromethyl)pyridin-3-yl)methyl)piperidin-4-yl)amino)-9H-xanthen-4-yl) pyridin-2(1H)-one] | 500 to 2000
O=c1cc(N2CCOCC2)cc(-c2cccc3c2Oc2ccc(NC4CCN(Cc5cccs5)CC4)cc2C3)[nH]1 [Example 2-28-25, 4-Morpholino-6-(7-((1-(thiophen-2-ylmethyl)piperidin-4-yl)amino)-9H-xanthen-4-yl)pyridin-2(1H)-one] | 100 to 500
O=c1cc(N2CCOCC2)cc(-c2cccc3c2Oc2ccc(NC4CCN(Cc5ccsc5)CC4)cc2C3)[nH]1 [Example 2-28-26, 4-Morpholino-6-(7-((1-(thiophen-3-ylmethyl)piperidin-4-yl)amino)-9H-xanthen-4-yl)pyridin-2(1H)-one] | 100 to 500
O=c1cc(N2CCOCC2)cc(-c2cccc3c2Oc2ccc(NC4CCN(Cc5ccco5)CC4)cc2C3)[nH]1 [Example 2-28-27, 6-(7-((1-(Furan-2-ylmethyl)piperidin-4-yl)amino)-9H-xanthen-4-yl)-4-morpholino pyridin-2(1H)-one] | 100 to 500
O=c1cc(N2CCOCC2)cc(-c2cccc3c2Oc2ccc(NC4CCN(Cc5ccoc5)CC4)cc2C3)[nH]1 [Example 2-28-28, 6-(7-((1-(Furan-3-ylmethyl)piperidin-4-yl)amino)-9H-xanthen-4-yl)-4-morpholino pyridin-2(1H)-one] | 100 to 500
O=c1cc(N2CCOCC2)cc(-c2cccc3c2Oc2ccc(NC4CCN(CCc5ccccc5)CC4)cc2C3)[nH]1 [Example 2-28-29, 4-Morpholino-6-(7-((1-phenethylpiperidin-4-yl)amino)-9H-xanthen-4-yl) pyridin-2(1H)-one] | 100 to 500
O=c1cc(N2CCOCC2)cc(-c2cccc3c2Oc2ccc(NC4CCN(Cc5cc(C6CC6)ccn5)CC4)cc2C3)[nH]1 [Example 2-28-30, 6-(7-((1-((4-Cyclopropylpyridin-2-yl)methyl)piperidin-4-yl)amino)-9H-xanthen-4-yl)-4-morpholino pyridin-2(1H)-one] | 100 to 500
O=c1cc(N2CCOCC2)cc(-c2cccc3c2Oc2ccc(NC4CCN(Cc5cccc(C6CC6)n5)CC4)cc2C3)[nH]1 [Example 2-28-31, 6-(7-((1-((6-Cyclopropylpyridin-2-yl)methyl)piperidin-4-yl)amino)-9H-xanthen-4-yl)-4-morpholino pyridin-2(1H)-one] | 100 to 500
CCCCN1CCC(Nc2ccc3c(c2)Cc2cccc(-c4cc(N5CCOCC5)cc(=O)[nH]4)c2O3)CC1 [Example 2-28-33, 6-(7-((1-Butylpiperidin-4-yl)amino)-9H-xanthen-4-yl)-4-morpholino pyridin-2 (1H)-one] | 100 to 500
O=c1cc(N2CCOCC2)cc(-c2cccc3c2Oc2ccc(NC4CCN(CCCc5ccccc5)CC4)cc2C3)[nH]1 [Example 2-28-34, 4-Morpholino-6-(7-((1-(3-phenylpropyl)piperidin-4-yl)amino)-9H-xanthen-4-yl) pyridin-2(1H)-one] | 500 to 2000
O=c1cc(N2CCOCC2)cc(-c2cccc3c2Oc2ccc(NC4CCN(CC5CCCCC5)CC4)cc2C3)[nH]1 [Example 2-28-35, 6-(7-((1-(Cyclohexylmethyl)piperidin-4-yl)amino)-9H-xanthen-4-yl)-4-morpholino pyridin-2(1H)-one] | 100 to 500
CCOc1ccnc(CN2CCC(Nc3ccc4c(c3)Cc3cccc(-c5cc(N6CCOCC6)cc(=O)[nH]5)c3O4)CC2)c1 [Example 2-28-36, 6-(7-((1-((4-Ethoxypyridin-2-yl)methyl)piperidin-4-yl)amino)-9H-xanthen-4-yl)-4-morpholino pyridin-2(1H)-one] | 100 to 500
CC(CN1CCC(Nc2ccc3c(c2)Cc2cccc(-c4cc(N5CCOCC5)cc(=O)[nH]4)c2O3)CC1)c1ccccc1 (stereo not shown) [Example 2-28-37, 4-Morpholino-6-(7-((1-(2-phenylpropyl)piperidin-4-yl)amino)-9H-xanthen-4-yl) pyridin-2(1H)-one] | 100 to 500
COc1ccc(CCN2CCC(Nc3ccc4c(c3)Cc3cccc(-c5cc(N6CCOCC6)cc(=O)[nH]5)c3O4)CC2)cn1 [Example 2-28-38, 6-(7-((1-(2-(6-Methoxypyridin-3-yl)ethyl)piperidin-4-yl)amino)-9H-xanthen-4-yl)-4-morpholino pyridin-2(1H)-one] | 100 to 500
COCCN1CCC(Nc2ccc3c(c2)Cc2cccc(-c4cc(N5CCOCC5)cc(=O)[nH]4)c2O3)CC1 [Example 2-29, 6-(7-((1-(2-Methoxyethyl)piperidin-4-yl)amino)-9H-xanthen-4-yl)-4-morpholinopyridin-2(1H)-one] | 500 to 2000
N#CCN1CCC(Nc2ccc3c(c2)Cc2cccc(-c4cc(N5CCOCC5)cc(=O)[nH]4)c2O3)CC1 [Example 2-30-1, 2-(4-((5-(4-morpholino-6-oxo-1,6-dihydropyridin-2-yl)-9H-xanthen-2-yl)amino)piperidin-1-yl)acetonitrile] | 100 to 500
COc1ccc(CCN2CCC(Nc3ccc4c(c3)Cc3cccc(-c5cc(N6CCOCC6)cc(=O)[nH]5)c3O4)CC2)cc1 [Example 2-30-2, 6-(7-((1-(4-Methoxyphenethyl)piperidin-4-yl)amino)-9H-xanthen-4-yl)-4-morpholino pyridin-2 (1H)-one] | 100 to 500
O=c1cc(N2CCOCC2)cc(-c2cccc3c2Oc2ccc(NC4CCN(CCc5ccccn5)CC4)cc2C3)[nH]1 [Example 2-30-3, 4-Morpholino-6-(7-((1-(2-(pyridin-2-yl)ethyl)piperidin-4-yl)amino)-9H-xanthen-4-yl)pyridin-2(1H)-one] | 500 to 2000
Cc1ccccc1CCN1CCC(Nc2ccc3c(c2)Cc2cccc(-c4cc(N5CCOCC5)cc(=O)[nH]4)c2O3)CC1 [Example 2-30-4, 6-(7-((1-(2-Methylphenethyl)piperidin-4-yl)amino)-9H-xanthen-4-yl)-4-morpholino pyridin-2 (1H)-one] | 100 to 500
O=c1cc(N2CCOCC2)cc(-c2cccc3c2Oc2ccc(NC4CCN(CCC5CCCCC5)CC4)cc2C3)[nH]1 [Example 2-30-5, 6-(7-((1-(2-Cyclohexylethyl)piperidin-4-yl)amino)-9H-xanthen-4-yl)-4-morpholino pyridin-2 (1H)-one] | 500 to 2000
O=c1cc(N2CCOCC2)cc(-c2cccc3c2Oc2ccc(NC4CCN(CCc5ccc(Cl)cc5)CC4)cc2C3)[nH]1 [Example 2-30-6, 6-(7-((1-(4-Chlorophenethyl)piperidin-4-yl)amino)-9H-xanthen-4-yl)-4-morpholino pyridin-2 (1H)-one] | 500 to 2000

The remaining lines, values ahead:

IC50 [nM] | SMILES
100 to 500 | CN(C)c1ncc(CN2CCC(Nc3ccc4c(c3)Cc3cccc(-c5cc(N6CCOCC6)cc(=O)[nH]5)c3O4)CC2)cn1 [Example 2-28-13, 6-(7-((1-((2-(Dimethylamino)pyrimidin-5-yl)methyl)piperidin-4-yl)amino)-9H-xanthen-4-yl)-4-morpholino pyridin-2(1H)-one]
100 to 500 | COc1ncc(CN2CCC(Nc3ccc4c(c3)Cc3cccc(-c5cc(N6CCOCC6)cc(=O)[nH]5)c3O4)CC2)cn1 [Example 2-28-14, 6-(7-((1-((2-Methoxypyrimidin-5-yl)methyl)piperidin-4-yl)amino)-9H-xanthen-4-yl)-4-morpholino pyridin-2(1H)-one]
100 to 500 | CN(C)c1nccc(CN2CCC(Nc3ccc4c(c3)Cc3cccc(-c5cc(N6CCOCC6)cc(=O)[nH]5)c3O4)CC2)n1 [Example 2-28-16, 6-(7-((1-((2-(Dimethylamino)pyrimidin-4-yl)methyl)piperidin-4-yl)amino)-9H-xanthen-4-yl)-4-morpholino pyridin-2(1H)-one]
100 to 500 | O=c1cc(N2CCOCC2)cc(-c2cccc3c2Oc2ccc(NC4CCN(Cc5cncc(Cl)c5)CC4)cc2C3)[nH]1 [Example 2-28-17, 6-(7-((1-((5-Chloropyridin-3-yl)methyl)piperidin-4-yl)amino)-9H-xanthen-4-yl)-4-morpholino pyridin-2(1H)-one]
100 to 500 | O=c1cc(N2CCOCC2)cc(-c2cccc3c2Oc2ccc(NC4CCN(Cc5cncc(F)c5)CC4)cc2C3)[nH]1 [Example 2-28-18, 6-(7-((1-((5-Fluoropyridin-3-yl)methyl)piperidin-4-yl)amino)-9H-xanthen-4-yl)-4-morpholino pyridin-2(1H)-one]
100 to 500 | Cc1ccnc(CN2CCC(Nc3ccc4c(c3)Cc3cccc(-c5cc(N6CCOCC6)cc(=O)[nH]5)c3O4)CC2)c1 [Example 2-28-19, 6-(7-((1-((4-Methylpyridin-2-yl)methyl)piperidin-4-yl)amino)-9H-xanthen-4-yl)-4-morpholino pyridin-2(1H)-one]
100 to 500 | COc1cc(OC)nc(CN2CCC(Nc3ccc4c(c3)Cc3cccc(-c5cc(N6CCOCC6)cc(=O)[nH]5)c3O4)CC2)n1 [Example 2-28-20, 6-(7-((1-((4,6-Dimethoxypyrimidin-2-yl)methyl)piperidin-4-yl)amino)-9H-xanthen-4-yl)-4-morpholino pyridin-2(1H)-one]
100 to 500 | O=c1cc(N2CCOCC2)cc(-c2cccc3c2Oc2ccc(NC4CCN(Cc5ccc(OC6CCOCC6)nc5)CC4)cc2C3)[nH]1 [Example 2-28-21, 4-Morpholino-6-(7-((1-((6-((tetrahydro-2H-pyran-4-yl)oxy)pyridin-3-yl)methyl)piperidin-4-yl)amino)-9H-xanthen-4-yl)pyridin-2(1H)-one]
100 to 500 | Cc1ccc(CN2CCC(Nc3ccc4c(c3)Cc3cccc(-c5cc(N6CCOCC6)cc(=O)[nH]5)c3O4)CC2)nc1 [Example 2-28-22, 6-(7-((1-((5-Methylpyridin-2-yl)methyl)piperidin-4-yl)amino)-9H-xanthen-4-yl)-4-morpholino pyridin-2(1H)-one]
100 to 500 | O=c1cc(N2CCOCC2)cc(-c2cccc3c2Oc2ccc(NC4CCN(Cc5ccccc5)CC4)cc2C3)[nH]1 [Example 2-28-24, 6-(7-((1-Benzylpiperidin-4-yl)amino)-9H-xanthen-4-yl)-4-morpholino pyridin-2 (1H)-one]
